Measured values as given in patent US20240091241A1, “USE OF CANNABIDIOL PREPARATIONS IN THE TREATMENT OF TEMPORAL LOBE EPILEPSY” (GW Research Limited, priority 2019, published 2024).

Assays:
[1] = General status / body weight of Li-Pilo rats during treatment; assay type: in vivo, rat
Experimental: (§1) From this point, the rats selected received vehicle during the first week of dosing then the test substance, CBD (SYN) or CBD (BOT 0.08%), at 200 mg/kg in drinking water until the end of the study, i.e. 7 weeks (1 week vehicle+6 weeks test substance). Dosing continued throughout the behavioural testing period (1 week). The drink was changed twice a week, until the end of the experiment.
The rats were weighed twice a week, at the same time that the vehicle/formulations were changed in the bottles. The glass bottles were also weighed twice a week for evaluating the volume drunk by the rat and adjusting the concentration during the experiment.

Li-Pilo rats [2] = assay: Social investigation test in Li-Pilo rats; assay type: in vivo, rat; settings: 200 mg/kg, given orally for 6/7 weeks before the test
Experimental: as §1
The behavioural tests started 6 weeks after the beginning of dosing, i.e. between weeks 11 and 13. The rats were tested in sub-groups, depending on the beginning of the treatment. […]
Two unfamiliar rats (housed in 2 separate cages) from the same group were placed in an unfamiliar testing arena (80×80×40 cm) under dim light (<100 Lux). The behavior of the 2 rats was recorded for 10 minutes.
The time each rat spent investigating (sniffing, grooming, licking, closely following) the other rat was measured manually for 10 minutes. Locomotor activity (line crossing) was also recorded.
A test of normality (D'Agostino and Pearson) was done to check the distribution of the data before applying the appropriate statistical analysis. Data on the investigation duration was analyzed using Kruskal-Wallis Test followed by Dunn's multiple comparisons test. Data on the number of crossings was analysed using One-Way ANOVA followed by Sidak's multiple comparisons test.

Li-Pilo rats [3] = assay: Elevated plus-maze test in Li-Pilo rats; assay type: in vivo, rat; settings: 200 mg/kg, given orally for 6/7 weeks before the test
Experimental: as §1
The behavioural tests started 6 weeks after the beginning of dosing, i.e. between weeks 11 and 13. The rats were tested in sub-groups, depending on the beginning of the treatment. The behavioural tests included the elevated plus maze, social investigation, social recognition and accelerating rotarod tests (tests done in this order on the week of assessment).
The method, which detects anxiolytic activity, follows that described by Handley and Mithani (Naunyn. Schmied. Arch. Pharmacol., 327, 1-5, 1984). Rodents avoid open spaces (the open arms of an elevated plus-maze). Anxiolytics increase exploratory activity in the open arms, as indicated by increased time spent on the open arms and/or by increased % open-arm entries.
The maze consisted of 4 arms of equal length and width (50×10 cm) arranged in the form of a plus sign (+). Two opposite arms were enclosed by 40 cm high walls (closed arms). The 2 other arms had no walls (open arms). The maze was raised approximately 65 cm above the floor. A rat was placed in the center of the plus-maze and was left to explore for 5 minutes. The number of entries into the open and closed arms and the time spent on the open arms were recorded. The % of open arm entries (open arm entries/total arm entries×100) was calculated.
A test of normality (D'Agostino and Pearson) was done to check the distribution of the data before applying the appropriate statistical analysis. Data on the total number of entries and on the percent of entries in open arms was analyzed using One-Way analysis of variance (ANOVA) followed by Sidak's multiple comparisons test. Data on the time spent in open arms was analysed using Kruskal-Wallis Test followed by Dunn's multiple comparisons test.

[4] = tested on: rat model of temporal lobe epilepsy, Reduced Intensity Status Epilepticus (RISE); assay: Post-Seizure Behavioural Battery (PSBB) in the Reduced Intensity Status Epilepticus (RISE) model; assay type: in vivo
Experimental: Reduced Intensity Status Epilepticus (RISE) model
The method, which detects anti-epileptic activity follows that described by Modebaze et al., 2016 (PLoS one, 11(2):e0147265).
On Day 1, the rats were treated with lithium chloride (127 mg/kg, 5 mL/kg, s.c.). Approximately 24 hours after, on Day 2, a-methyl scopolamine (1 mg/kg, 1 mL/kg, s.c.) was administered to reduce peripheral manifestations of muscarinic cholinergic receptor activation. Thirty minutes later, a dose of pilocarpine chloride was injected (range from 25 mg/kg×1 to 40 mg/kg×5, i.e. 25-200 mg/kg, 1 mL/kg, s.c., reference P6503, Sigma). […]
Status epilepticus was determined when seizure severity was equal to a score of 5 on a Racine's scale. […]
Behavioural signs of status epilepticus were ceased within 30 minutes and animals were then closely monitored during subsequent recovery. They were visually monitored until ambulatory and able to consume water and moistened, powdered food. […]
The lithium-pilocarpine rats were assessed in the two following behavioural tests twice weekly over the next 10 weeks, starting two weeks after status epilepticus induction (on Day 15). […]
The PSBB score was analysed pre and post-treatment to assess firstly if the animals were evenly distributed in the 3 different treatment groups based on their epileptic phenotype and if it was affected differently by synthetic and botanical CBD. […]

## C=C(C)[C@@H]1CCC(C)=C[C@H]1c1c(O)cc(CCCCC)cc1O [Synthetic CBD, cannabidiol]
[1]; Phase 1
  rats that lost weight on the 7 weeks of test: Three other rats lost weight
[1]; Phase 1, nine rats in group
  deaths in the treated group: Two rats died
[1]; Phase 2
  rats that lost weight on the 7 weeks of test: Four other rats lost weight
[1]; Phase 2, thirteen rats in group
  rats lost before the end of the experiment: One rat was sacrificed for ethical reasons
Li-Pilo rats [2]
  duration of investigation, as compared with control Li-Pilo rats: did not significantly change
  number of line crossings, as compared with control Li-Pilo rats: did not significantly change
Li-Pilo rats [3]
  percent of entries in open arms, as compared with control Li-Pilo rats: did not clearly affect
  time spent in open arms, as compared with control Li-Pilo rats: did not clearly affect
Li-Pilo rats [3]; 5 minutes
  total number of entries, as compared with control Li-Pilo rats: did not clearly affect
[4]; 200 mg/kg, given orally for 6/7 weeks before the test
  post-treatment PSBB score, as compared with control Li-Pilo rats (epileptic vehicle): did not significantly affect
[4]; epileptic animals, comparator not stated
  post-treatment PSBB score (conclusion): failed to lower the score
